Measured values as given in patent US20250145665A1, “MACROCYCLIC PEPTIDES USEFUL AS MODULATORS OF TNF ALPHA” (Bristol-Myers Squibb Company, priority 2023, published 2025).
pIC50: −log10 of the molar value. Positions of bridges follow the written chain, without caps; N, C: chain ends. Non-standard residues stand in square brackets, D forms with d. Residues, ends and D or L forms follow the SMILES beside them. Bip(4'-NHAc) = CC(=O)Nc1ccc(-c2ccc(C[C@H](N)C(=O)O)cc2)cc1; Phe(4-(4-pyridyl)) = N[C@@H](Cc1ccc(-c2ccncc2)cc1)C(=O)O; Phe(4-(3-Py)) = N[C@@H](Cc1ccc(-c2cccnc2)cc1)C(=O)O; Ala(morpholin-4-yl) = N[C@@H](CN1CCOCC1)C(=O)O; Bip = N[C@@H](Cc1ccc(-c2ccccc2)cc1)C(=O)O; Hyp = O=C(O)[C@@H]1C[C@@H](O)CN1; 4Pal = N[C@@H](Cc1ccncc1)C(=O)O; Tic = O=C(O)[C@@H]1Cc2ccccc2CN1; Aze = O=C(O)[C@@H]1CCN1; Sar = CNCC(=O)O

molecular target: TNFα (Homo sapiens, UniProt P01375); test: TNF-Induced HEK-Blue Assay; assay type: cell-based; conditions: HEK-Blue-CD40L cells, NF-kB-driven secreted alkaline phosphatase reporter; TNFα 0.5 ng/ml; 18 h; read-out: TNF induced HEK-Blue assay IC50 value
Sequence (P01375 77-233 limits assumed): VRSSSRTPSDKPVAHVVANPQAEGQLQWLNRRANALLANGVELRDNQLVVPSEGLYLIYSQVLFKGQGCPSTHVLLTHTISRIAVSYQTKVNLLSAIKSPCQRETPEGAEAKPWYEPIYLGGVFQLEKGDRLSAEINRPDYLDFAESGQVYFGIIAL

| Compound | pIC50 |
| --- | --- |
| CC(C)C[C@@H]1NC(=O)[C@H](CCCNC(=N)N)NC(=O)[C@H](C(C)C)NC(=O)[C@@H]2CCN2C(=O)[C@H](C(C)C)NC(=O)[C@H](CCCNC(=N)N)NC(=O)[C@H](CC(=O)O)NC(=O)[C@@H]2CCCN2C(=O)CN(C)C(=O)[C@H](Cc2ccc(-c3ccccc3)cc2)NC(=O)[C@H](Cc2ccc(-c3ccccc3)cc2)NC(=O)[C@H](CN2CCOCC2)NC(=O)CSC[C@@H](C(=O)NCC(N)=O)NC1=O [Example 72] ({CH2CO}-[Ala(morpholin-4-yl)][Bip][Bip][Sar]PDRV[Aze]VRLCG-NH2; thioether N-13) | 6.70 to 7.30 |
| CC(C)C[C@@H]1NC(=O)[C@H](CCCNC(=N)N)NC(=O)[C@H](C(C)C)NC(=O)[C@@H]2CCCN2C(=O)[C@H](C(C)C)NC(=O)[C@@H](CCCNC(=N)N)NC(=O)[C@H](CC(=O)O)NC(=O)[C@H](Cc2ccc(O)cc2)NC(=O)CN(C)C(=O)[C@H](Cc2ccc(-c3ccccc3)cc2)NC(=O)[C@H](Cc2ccc(-c3ccccc3)cc2)NC(=O)[C@H](CN2CCOCC2)NC(=O)CSC[C@@H](C(=O)NCC(N)=O)NC1=O [Example 76] ({CH2CO}-[Ala(morpholin-4-yl)][Bip][Bip][Sar]YD[dR]VPVRLCG-NH2; thioether N-13) | > 7.30 |
| CC(C)C[C@@H]1NC(=O)[C@H](Cc2ccc(O)cc2)NC(=O)[C@H](C(C)C)NC(=O)[C@@H]2CCCN2C(=O)[C@H](C(C)C)NC(=O)[C@@H](CCCNC(=N)N)NC(=O)[C@H](CC(=O)O)NC(=O)[C@@H]2CCCN2C(=O)CN(C)C(=O)[C@H](Cc2ccc(-c3ccccc3)cc2)NC(=O)[C@H](Cc2ccc(-c3ccccc3)cc2)NC(=O)[C@H](CN2CCOCC2)NC(=O)CSC[C@@H](C(=O)NCC(N)=O)NC1=O [Example 77] ({CH2CO}-[Ala(morpholin-4-yl)][Bip][Bip][Sar]PD[dR]VPVYLCG-NH2; thioether N-13) | 5.70 to 6.70 |
| CC(C)C[C@@H]1NC(=O)[C@H](Cc2ccc(O)cc2)NC(=O)[C@H](C(C)C)NC(=O)[C@@H]2C[C@@H](O)CN2C(=O)[C@H](C(C)C)NC(=O)[C@@H](CCCNC(=N)N)NC(=O)[C@H](CC(=O)O)NC(=O)[C@@H]2CCCN2C(=O)CN(C)C(=O)[C@H](Cc2ccc(-c3ccccc3)cc2)NC(=O)[C@H](Cc2ccc(-c3ccccc3)cc2)NC(=O)[C@H](CN2CCOCC2)NC(=O)CSC[C@@H](C(=O)NCC(N)=O)NC1=O [Example 80] ({CH2CO}-[Ala(morpholin-4-yl)][Bip][Bip][Sar]PD[dR]V[Hyp]VYLCG-NH2; thioether N-13) | 5.70 to 6.70 |
| CC(C)C[C@@H]1NC(=O)[C@H](Cc2ccc(O)cc2)NC(=O)[C@H](C(C)C)NC(=O)[C@@H]2Cc3ccccc3CN2C(=O)[C@H](C(C)C)NC(=O)[C@@H](CCCNC(=N)N)NC(=O)[C@H](CC(=O)O)NC(=O)[C@@H]2CCCN2C(=O)CN(C)C(=O)[C@H](Cc2ccc(-c3ccccc3)cc2)NC(=O)[C@H](Cc2ccc(-c3ccccc3)cc2)NC(=O)[C@H](CN2CCOCC2)NC(=O)CSC[C@@H](C(=O)NCC(N)=O)NC1=O [Example 81] ({CH2CO}-[Ala(morpholin-4-yl)][Bip][Bip][Sar]PD[dR]V[Tic]VYLCG-NH2; thioether N-13) | 6.70 to 7.30 |
| CC(C)C[C@@H]1NC(=O)[C@H](Cc2ccc(O)cc2)NC(=O)[C@H](C(C)C)NC(=O)[C@@H]2CCN2C(=O)[C@H](C(C)C)NC(=O)[C@@H](CCCNC(=N)N)NC(=O)[C@H](CC(=O)O)NC(=O)[C@@H]2CCCN2C(=O)CN(C)C(=O)[C@H](Cc2ccc(-c3ccccc3)cc2)NC(=O)[C@H](Cc2ccc(-c3ccccc3)cc2)NC(=O)[C@H](CN2CCOCC2)NC(=O)CSC[C@@H](C(=O)NCC(N)=O)NC1=O [Example 82] ({CH2CO}-[Ala(morpholin-4-yl)][Bip][Bip][Sar]PD[dR]V[Aze]VYLCG-NH2; thioether N-13) | 5.70 to 6.70 |
| CC(C)C[C@@H]1NC(=O)[C@H](Cc2ccc(O)cc2)NC(=O)[C@H](C(C)C)NC(=O)[C@@H]2CCCN2C(=O)[C@H](CC(N)=O)NC(=O)[C@H](CCCNC(=N)N)NC(=O)[C@H](CC(=O)O)NC(=O)[C@H](Cc2ccc(O)cc2)NC(=O)CN(C)C(=O)[C@H](Cc2ccc(-c3ccccc3)cc2)NC(=O)[C@H](Cc2ccc(-c3ccccc3)cc2)NC(=O)[C@H](CN2CCOCC2)NC(=O)CSC[C@@H](C(=O)NCC(N)=O)NC1=O [Example 83] ({CH2CO}-[Ala(morpholin-4-yl)][Bip][Bip][Sar]YDRNPVYLCG-NH2; thioether N-13) | 6.70 to 7.30 |
| CC(=O)Nc1ccc(-c2ccc(C[C@@H]3NC(=O)[C@H](CN4CCOCC4)NC(=O)CSC[C@@H](C(=O)NCC(N)=O)NC(=O)[C@H](C(C)C)NC(=O)[C@H](CCCNC(=N)N)NC(=O)[C@H](C(C)C)NC(=O)[C@@H]4CCCN4C(=O)[C@H](C(C)C)NC(=O)[C@@H](CCCNC(=N)N)NC(=O)[C@H](CC(=O)O)NC(=O)[C@@H]4CCCN4C(=O)CN(C)C(=O)[C@H](Cc4ccc(-c5ccccc5)cc4)NC3=O)cc2)cc1 [Example 85] ({CH2CO}-[Ala(morpholin-4-yl)][Bip(4'-NHAc)][Bip][Sar]PD[dR]VPVRVCG-NH2; thioether N-13) | 5.70 to 6.70 |
| CC(C)[C@@H]1NC(=O)[C@H](CCCNC(=N)N)NC(=O)[C@H](C(C)C)NC(=O)[C@@H]2CCCN2C(=O)[C@H](C(C)C)NC(=O)[C@H](CCCNC(=N)N)NC(=O)[C@H](CC(=O)O)NC(=O)[C@@H]2CCCN2C(=O)CN(C)C(=O)[C@H](Cc2ccc(-c3ccccc3)cc2)NC(=O)[C@H](Cc2ccncc2)NC(=O)[C@H](CN2CCOCC2)NC(=O)CSC[C@@H](C(=O)NCC(N)=O)NC1=O [Example 86] ({CH2CO}-[Ala(morpholin-4-yl)][4Pal][Bip][Sar]PDRVPVRVCG-NH2; thioether N-13) | 6.70 to 7.30 |
| CC(C)[C@@H]1NC(=O)[C@H](CCCNC(=N)N)NC(=O)[C@H](C(C)C)NC(=O)[C@@H]2CCCN2C(=O)[C@H](C(C)C)NC(=O)[C@H](CCCNC(=N)N)NC(=O)[C@H](CC(=O)O)NC(=O)[C@@H]2CCCN2C(=O)CN(C)C(=O)[C@H](Cc2ccc(-c3ccccc3)cc2)NC(=O)[C@H](Cc2ccc(-c3ccncc3)cc2)NC(=O)[C@H](CN2CCOCC2)NC(=O)CSC[C@@H](C(=O)NCC(N)=O)NC1=O [Example 87] ({CH2CO}-[Ala(morpholin-4-yl)][Phe(4-(4-pyridyl))][Bip][Sar]PDRVPVRVCG-NH2; thioether N-13) | 6.70 to 7.30 |
| CC(C)[C@@H]1NC(=O)[C@H](CCCNC(=N)N)NC(=O)[C@H](C(C)C)NC(=O)[C@@H]2CCCN2C(=O)[C@H](C(C)C)NC(=O)[C@H](CCCNC(=N)N)NC(=O)[C@H](CC(=O)O)NC(=O)[C@@H]2CCCN2C(=O)CN(C)C(=O)[C@H](Cc2ccc(-c3ccccc3)cc2)NC(=O)[C@H](Cc2ccc(-c3cccnc3)cc2)NC(=O)[C@H](CN2CCOCC2)NC(=O)CSC[C@@H](C(=O)NCC(N)=O)NC1=O [Example 88] ({CH2CO}-[Ala(morpholin-4-yl)][Phe(4-(3-Py))][Bip][Sar]PDRVPVRVCG-NH2; thioether N-13) | 5.70 to 6.70 |

The next lines start with the values.

| pIC50 | Compound |
| --- | --- |
| 5.70 to 6.70 | CC(C)C[C@@H]1NC(=O)[C@H](Cc2ccc(O)cc2)NC(=O)[C@H](C(C)C)NC(=O)[C@@H]2C[C@@H](O)CN2C(=O)[C@H](C(C)C)NC(=O)[C@H](CCCNC(=N)N)NC(=O)[C@H](CC(=O)O)NC(=O)[C@H](Cc2ccc(O)cc2)NC(=O)CN(C)C(=O)[C@H](Cc2ccc(-c3ccccc3)cc2)NC(=O)[C@H](Cc2ccc(-c3ccccc3)cc2)NC(=O)[C@H](CN2CCOCC2)NC(=O)CSC[C@@H](C(=O)NCC(N)=O)NC1=O [Example 73] ({CH2CO}-[Ala(morpholin-4-yl)][Bip][Bip][Sar]YDRV[Hyp]VYLCG-NH2; thioether N-13) |
| 5.70 to 6.70 | CC(C)C[C@@H]1NC(=O)[C@H](Cc2ccc(O)cc2)NC(=O)[C@H](C(C)C)NC(=O)[C@@H]2Cc3ccccc3CN2C(=O)[C@H](C(C)C)NC(=O)[C@H](CCCNC(=N)N)NC(=O)[C@H](CC(=O)O)NC(=O)[C@H](Cc2ccc(O)cc2)NC(=O)CN(C)C(=O)[C@H](Cc2ccc(-c3ccccc3)cc2)NC(=O)[C@H](Cc2ccc(-c3ccccc3)cc2)NC(=O)[C@H](CN2CCOCC2)NC(=O)CSC[C@@H](C(=O)NCC(N)=O)NC1=O [Example 74] ({CH2CO}-[Ala(morpholin-4-yl)][Bip][Bip][Sar]YDRV[Tic]VYLCG-NH2; thioether N-13) |
| 5.70 to 6.70 | CC(C)C[C@@H]1NC(=O)[C@H](Cc2ccc(O)cc2)NC(=O)[C@H](C(C)C)NC(=O)[C@@H]2CCN2C(=O)[C@H](C(C)C)NC(=O)[C@H](CCCNC(=N)N)NC(=O)[C@H](CC(=O)O)NC(=O)[C@H](Cc2ccc(O)cc2)NC(=O)CN(C)C(=O)[C@H](Cc2ccc(-c3ccccc3)cc2)NC(=O)[C@H](Cc2ccc(-c3ccccc3)cc2)NC(=O)[C@H](CN2CCOCC2)NC(=O)CSC[C@@H](C(=O)NCC(N)=O)NC1=O [Example 75] ({CH2CO}-[Ala(morpholin-4-yl)][Bip][Bip][Sar]YDRV[Aze]VYLCG-NH2; thioether N-13) |
| 6.70 to 7.30 | CC(C)C[C@@H]1NC(=O)[C@H](Cc2ccc(O)cc2)NC(=O)[C@H](C(C)C)NC(=O)[C@@H]2C[C@@H](O)CN2C(=O)[C@H](C(C)C)NC(=O)[C@@H](CCCNC(=N)N)NC(=O)[C@H](CC(=O)O)NC(=O)[C@H](Cc2ccc(O)cc2)NC(=O)CN(C)C(=O)[C@H](Cc2ccc(-c3ccccc3)cc2)NC(=O)[C@H](Cc2ccc(-c3ccccc3)cc2)NC(=O)[C@H](CN2CCOCC2)NC(=O)CSC[C@@H](C(=O)NCC(N)=O)NC1=O [Example 78] ({CH2CO}-[Ala(morpholin-4-yl)][Bip][Bip][Sar]YD[dR]V[Hyp]VYLCG-NH2; thioether N-13) |
| > 7.30 | CC(C)C[C@@H]1NC(=O)[C@H](Cc2ccc(O)cc2)NC(=O)[C@H](C(C)C)NC(=O)[C@@H]2CCN2C(=O)[C@H](C(C)C)NC(=O)[C@@H](CCCNC(=N)N)NC(=O)[C@H](CC(=O)O)NC(=O)[C@H](Cc2ccc(O)cc2)NC(=O)CN(C)C(=O)[C@H](Cc2ccc(-c3ccccc3)cc2)NC(=O)[C@H](Cc2ccc(-c3ccccc3)cc2)NC(=O)[C@H](CN2CCOCC2)NC(=O)CSC[C@@H](C(=O)NCC(N)=O)NC1=O [Example 79] ({CH2CO}-[Ala(morpholin-4-yl)][Bip][Bip][Sar]YD[dR]V[Aze]VYLCG-NH2; thioether N-13) |
